Experimental data published in patent US11684763B2, “Multi-component bio-active drug delivery and controlled release to the skin by microneedle array devices” (University of Pittsburgh—Of the Commonwealth System of …, priority 2015, dated 2023).

How the values were obtained:
[1] = tested on: B16 skin tumors; assay: B16 melanoma model: established skin tumors treated with MNAs; conditions: MNA once weekly for three weeks; for tumor growth: compared to untreated tumor bearing animals; for survival: untreated animals 100% mortality
Experimental: The B16 melanoma model was used as a model tumor to test these novel approaches.
Visible established cutaneous tumors were treated once weekly for three weeks with MNAs containing either doxorubicin alone, Poly(I:C) alone, or doxorubicin and Poly(I:C) incorporated into the same MNA. The doxorubicin dose chosen corresponds to an MNA dose that induces apoptosis in human skin without causing necrosis. Tumor growth and survival were measured regularly for the duration of the study.

[2] = tested on: epidermal cells of living human skin explants; conditions: 5 mg/g of CMC; arrays removed after 5 minutes; 72 hours of exposure
Experimental: Cytoxan® was integrated at a concentration of 5 mg/g of CMC, enabling delivery of approximately about 140 μg per array. This is a therapeutically relevant concentration based on the area of skin targeted, yet well below levels associated with systemic toxicities. Living human skin organ cultures were used to assess the cytotoxicty of Cytoxan®. Cytoxan® was delivered by application of arrays to skin explants as we previously described. Arrays and residual material were removed 5 minutes after application, and after 72 hours of exposure, culture living skin explants were cryo-sectioned and fixed. Apoptosis was evaluated using green fluorescent TUNEL assay (In Situ Cell Death Detection Kit, TMR […], Roche, cat #:11-684-795-910).

[3] = Dye release from MNAs inserted into 4% agar test-gels; assay type: physicochemical; conditions: dually loaded MNA
Source text: To illustrate the delivery of multiple drugs with distinct release kinetics, MNAs were fabricated to delivery two distinct cargos by distinct release kinetics. Specifically, MNAs were fabricated to release the marker Toluidine Blue in an initial burst, followed by a sustained release of the marker FD&C Red40. Dyes were directly loaded in the MNA scaffold matrix (in this case CMC) of the needle tips and in some cases a second dye, encapsulated in a sustained release polymer was layer directly below. MNAs were inserted into 4% agar test-gels and removed after 1 min.
Images of dye diffusion were collected at the indicated time points (FIG. 39A). […] Alternatively, MNAs were fabricated with toluidine blue tip-loaded and FD&C Red40 encapsulated in a sustained release polymer (FIG. 39C). MNAs were inserted into 4% agar test-gel and removed after 1 min. Images were collected at the indicated time-points. […] Upper panels depict images of microneedles from MNAs before application. The middle images are the imprints of the arrays 1 minute after application and MNA removal. Lower panels depicted the indicated representative magnified images at the indicated time points.

## COc1cccc2c1C(=O)c1c(O)c3c(c(O)c1C2=O)C[C@@](O)(C(=O)CO)C[C@@H]3O[C@H]1C[C@H](N)[C@H](O)[C@H](C)O1 [doxorubicin]
[1]
  tumor growth: slowed tumor growth
  survival: 30%

## O=P1(N(CCCl)CCCl)NCCCO1 (centres unmarked) [Cytoxan®, cyclophosphamide]
[2]
  apoptosis of epidermal cells (TUNEL): extensive apoptosis of epidermal cells

## Poly(I:C)
[1]
  tumor growth: slowed tumor growth
  survival: 50%

## Cc1cc2nc3ccc(N(C)C)cc3[s+]c2cc1N.[Cl-] [Toluidine Blue]
[3]; dye in CMC in the needle tip
  release of tip-loaded dye: released in an initial burst

## COc1cc(S(=O)(=O)[O-])c(C)cc1N=Nc1c(O)ccc2cc(S(=O)(=O)[O-])ccc12.[Na+].[Na+] [FD&C Red40]
[3]; dye encapsulated in a sustained release polymer
  release of encapsulated dye: released slowly over an extended time period
[3]; dye in underlying layer of sustained release polymer
  period of release from depot: 10 days
